# Molecular target: TNFα (Homo sapiens, UniProt P01375)
# Experiment: TNF induced HEK-Blue assay (NF-kB-driven secreted alkaline phosphatase reporter)
# Assay type: cell-based
# Conditions: TNFα 0.5 ng/mL, HEK-Blue-CD40L cells, 18 h; read-out: TNF induced HEK-Blue assay IC50 value
# Outline: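 HEK-Blue-CD40L cells (NF-kB-driven SEAP reporter), 20,000/well, added after 30 min pre-incubation of compound (0.004–25 μM final) with TNFα 0.5 ng/mL final at 37 °C; 18 h incubation. SEAP read with QUANTI-Blue at 620 nm; IC50 from 4-parameter logistic fit, normalized to unstimulated and stimulated DMSO controls.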
# Sequence of TNFα (P01375 77-233 limits assumed): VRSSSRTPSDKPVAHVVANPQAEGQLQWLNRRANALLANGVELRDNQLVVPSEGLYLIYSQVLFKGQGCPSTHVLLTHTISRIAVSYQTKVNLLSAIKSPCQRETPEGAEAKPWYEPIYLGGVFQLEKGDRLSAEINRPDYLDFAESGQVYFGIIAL
row,SMILES,IC50 [nM]
1,"CC(Nc1c(Cl)cnc2ccc(-c3ccc(C(C)(C)O)cc3)cc12)c1ccnn1C (racemic) [Example 195, 2-(4-(3-chloro-4-((1-(1-methyl-1H-pyrazol-5-yl)ethyl)amino)quinolin-6-yl)phenyl)propan-2-ol]",10000 to 25000
2,"CC(Nc1c(Cl)cnc2ccc(-c3ccc(C(C)(C)O)cc3)cc12)c1ccsc1 (racemic) [Example 196, 2-(4-(3-chloro-4-((1-(thiophen-3-yl)ethyl)amino)quinolin-6-yl)phenyl)propan-2-ol]",< 1000
3,"CC(Nc1c(Cl)cnc2ccc(-c3ccc(C(C)(C)O)cc3)cc12)c1cnn(C)c1 (racemic) [Example 197, 2-(4-(3-chloro-4-((1-(1-methyl-1H-pyrazol-4-yl)ethyl)amino)quinolin-6-yl)phenyl)propan-2-ol]",10000 to 25000
4,"CC(Nc1c(Cl)cnc2ccc(-c3ccc(C(C)(C)O)cc3)cc12)c1cnccn1 (racemic) [Example 198, 2-(4-(3-chloro-4-((1-(pyrazin-2-yl)ethyl)amino)quinolin-6-yl)phenyl)propan-2-ol]",< 1000
5,"CC(Nc1c(Cl)cnc2ccc(-c3ccc(C(C)(C)O)cc3)cc12)c1cccs1 (racemic) [Example 199, 2-(4-(3-chloro-4-((1-(thiophen-2-yl)ethyl)amino)quinolin-6-yl)phenyl)propan-2-ol]",< 1000
6,"CC(Nc1c(Cl)cnc2ccc(-c3ccc(C(C)(C)O)cc3)cc12)c1ccn(C)n1 (racemic) [Example 200, 2-(4-(3-chloro-4-((1-(1-methyl-1H-pyrazol-3-yl)ethyl)amino)quinolin-6-yl)phenyl)propan-2-ol]",1000 to 10000
7,"CC(Nc1c(Cl)cnc2ccc(-c3ccc(C(C)(C)O)cc3)cc12)c1nccn1C (racemic) [Example 201, 2-(4-(3-chloro-4-((1-(1-methyl-1H-imidazol-2-yl)ethyl)amino)quinolin-6-yl)phenyl)propan-2-ol]",10000 to 25000
8,"CC(Nc1c(Cl)cnc2ccc(-c3ccc(C(C)(C)O)cc3)cc12)c1cscn1 (racemic) [Example 202, 2-(4-(3-chloro-4-((1-(thiazol-4-yl)ethyl)amino)quinolin-6-yl)phenyl)propan-2-ol]",< 1000
9,"CC(Nc1c(Cl)cnc2ccc(-c3ccc(C(C)(C)O)cc3)cc12)c1cnco1 (racemic) [Example 203, 2-(4-(3-chloro-4-((1-(oxazol-5-yl)ethyl)amino)quinolin-6-yl)phenyl)propan-2-ol]",< 1000
10,"CC(Nc1c(Cl)cnc2ccc(-c3ccc(C(C)(C)O)cc3)cc12)c1ccoc1 (racemic) [Example 204, 2-(4-(3-chloro-4-((1-(furan-3-yl)ethyl)amino)quinolin-6-yl)phenyl)propan-2-ol]",< 1000
11,"CC(Nc1c(Cl)cnc2ccc(-c3ccc(C(C)(C)O)cc3)cc12)c1cn(C)cn1 (racemic) [Example 205, 2-(4-(3-chloro-4-((1-(1-methyl-1H-imidazol-4-yl)ethyl)amino)quinolin-6-yl)phenyl)propan-2-ol]",< 1000
12,"CC(Nc1c(Cl)cnc2ccc(-c3ccc(C(C)(C)O)cc3)cc12)c1cocn1 (racemic) [Example 206, 2-(4-(3-chloro-4-((1-(oxazol-4-yl)ethyl)amino)quinolin-6-yl)phenyl)propan-2-ol]",10000 to 25000
13,"CC(Nc1c(Cl)cnc2cc(F)c(-c3cnc(C(C)(C)O)nc3)nc12)c1ccccc1F (racemic) [Example 209, 2-(5-(7-chloro-3-fluoro-8-((1-(2-fluorophenyl)ethyl)amino)-1,5-naphthyridin-2-yl)pyrimidin-2-yl)propan-2-ol]",< 1000
14,"CC(Nc1c(Cl)cnc2ccc(-c3ccc(C(C)(C)O)cc3)cc12)c1cncn1C (racemic) [Example 210, 2-(4-(3-chloro-4-((1-(1-methyl-1H-imidazol-5-yl)ethyl)amino)quinolin-6-yl)phenyl)propan-2-ol]",< 1000
15,"CC(Nc1c(Cl)cnc2ccc(-c3ccc(C(C)(C)O)cc3)cc12)c1cncs1 (racemic) [Example 211, 2-(4-(3-chloro-4-((1-(thiazol-5-yl)ethyl)amino)quinolin-6-yl)phenyl)propan-2-ol]",< 1000

# From patent publication US10865191B2, “Heterocyclic compounds useful as modulators of TNF alpha” (BRISTOL-MYERS SQUIBB COMPANY, priority 2015, dated 2020)
